Assay results published in US10342766B2, “6-shogaol derivatives and activities thereof” (North Carolina Agricultural and Technical State University, priority 2017, dated 2019).
pIC50: −log10 of the molar value. Several values for one entry are separate records, joined by “and”; a condition that tells them apart may be missing. Equal values may be shown once.

Experiments:
Nrf2 = Nrf2 reporter activity by Tg(gstp1:GFP) fluorescence in transgenic zebrafish embryos; type: in vivo; conditions: 5 μM, 24-hour treatment from 1 dpf to 2 dpf; olfactory epithelia; relative to vehicle (DMSO = 1.00)
Protocol: Zebrafish AB transgenic strains Tg(gstp1:GFP) were maintained in a Pentair Aquatic Ecosystem (Apopka, Fla., United States of America) fish housing unit with 14 h light/10 h dark cycle (see Tsujita, T., Li, L., Nakajima, H., Iwamoto, N., Nakajima-Takagi, Y., Ohashi, K., Kawakami, K., Kumagai, Y., Freeman, B. A., Yamamoto, M., and Kobayashi, M. (2011) “Nitro-fatty acids and cyclopentenone prostaglandins share strategies to activate the Keap1-Nrf2 system: a study using green fluorescent protein transgenic zebrafish.” Genes Cells 16, 46-57). The fish embryos were maintained at 28.5° C. in 0.3× Danieau's solution (19.3 mM NaCl, 0.23 mM KCl, 0.13 mM MgSO4, 0.2 mM Ca(NO3)2, 1.7 mM HEPES, pH 7.0) containing 30 μg/ml phenylthiourea (PTU) to inhibit pigmentation. Tg(gstp1:GFP) cross with AB wild-type strain fluorescence embryos were used for the experiment. Zebrafish embryos were washed, dechorionated and anaesthetized before observations, and fluorescence imaging for analysis.
Transgenic zebrafish embryos at 1 day-post-fertilization (dpf) were dechorionated and placed in Petri dishes containing different chemicals diluted in 0.3× Danieau's solution containing PTU. The chemical stock was dissolved in DMSO at 5 mM concentration.
An Olympus MVX10 Fluorescence Macroscope (Olympus, Center Valley, Pa., United States of America) equipped with a Hamamatsu C9300-221 high-speed digital CCD camera (Hamamatsu City, Japan) was used for fluorescence microscopy. Tg(gstp1:GFP) fluorescent embryos were anaesthetized in tricaine and imaged at 2 dpf. MetaMorph Basic software (Olympus, Center Valley, Pa., United States of America) was used for image acquisition and analysis.
Quantification of Nrf2 Reporter Activity by Tg(gstp1:
GFP) Fluoresence in Zebrafish Model. The fluorescence intensity of the olfactory neural epithelia was quantitated using MetaMorph Basic software. In brief, GFP expression in the olfactory regions of Tg(gstp1:GFP) embryos treated with various chemicals was measured after 24-hour treatment from 1 dpf to 2 dpf. The GFP induction was detectable by fluorescence signal at the area of the olfactory epithelia in the anterior of the head region, the intensity was measured using an area of a circle of 60 pixel diameter of the fluorescence olfactory epithelia subtracted by a background non-fluorescence area next to the zebrafish embryo. Both the left and right olfactory epithelia were measured to give an average fluorescence value. The values are an average of measurements from at least 10 embryos.

[1] = tested on: human colon cancer cells HCT-116; assay: MTT growth inhibition, HCT-116; type: cell-based; conditions: 24 hours
Protocol: Cell viability was determined by an MTT colorimetric assay. Briefly, human colon cancer cells HCT-116 or HT-29, were plated in 96-well microtiter plates with 3000 cells/well and allowed to attach for 24 hours at 37° C. and 5% CO2. The test compounds (in DMSO) were added to cell culture medium to desired final concentrations (final DMSO concentrations for control and treatments were 0.1%). After the cells were cultured for 24 hours, the medium was aspirated and cells were treated with 200 μL fresh medium containing 2.41 mmol/L MTT. After incubation for 3 hours at 37° C., the medium containing MTT was aspirated, 100 μL of DMSO was added to solubilize the formazan precipitate, and the plates were shaken gently for an hour at room temperature. Absorbance values were derived from the plate reading at 550 nm on a Biotek (Winooski, Vt., United States of America) microtiter plate reader. The reading reflected the number of viable cells and was expressed as a percentage of viable cells in the control. CCD-18Co cells were grown in EMEM. Both HCT-116 and HT-29 cells were cultured in McCoy's 5A medium. All of the above media were supplemented with 10% fetal bovine serum, 1% penicillin/streptomycin, and 1% glutamine, and the cells were kept in a 37° C. incubator with 95% humidity and 5% CO2.

[2] = Formation of cysteine conjugates in mice (urine, LC/MS); type: in vivo, mouse; conditions: oral gavage 200 mg/kg, urine collected in 24 h
Protocol: LC/MS analysis was carried out with a Thermo-Finnigan Spectra System, which consisted of an Accela high speed MS pump, an Accela refrigerated autosampler, and an LCQ Fleet ion trap mass detector (Thermo Electron, San Jose, Calif., United States of America) incorporated with an electrospray ionization (ESI) interface. A Gemini-NX C18 column (150 mm×4.6 mm i.d., 5 μm; Phenomenex, Torrance, Calif., United States of America) was used for separation at a flow rate of 0.3 mL/min. The column was eluted with 100% A (5% aqueous methanol with 0.2% formic acid) for 1 min, followed by linear increases in B (95% aqueous methanol with 0.2% formic acid) to 55% from 1 to 4 min, to 85% from 4 to 25 min, then to 100% B from 25 to 30 min, and then with 100% B from 30 to 35 min. The column was then re-equilibrated with 100% A for 5 min. The LC eluent was introduced into the ESI interface. The positive ion polarity mode was set for the ESI source with the voltage on the ESI interface maintained at approximately 4.6 kV. Nitrogen gas was used as the sheath gas and auxiliary gas. […] The mass range was measured from 100 to 800 m/z. […]
Enzymatic deconjugation of mouse urine was performed as described previously with slight modifications. […] The resulting suspension was centrifuged at 17,000 g for 5 min, and 10 μL of supernatant was analyzed directly by LC/MS.

pIC50 [1]: 4.47
Compound: CCCCCCCC(=O)/C=C/c1ccc(O)c(O)c1 [Compound 27]
Ratio/CTL, Tg(gstp1:GFP) fluorescence signal (Nrf2): 9.19 and 9.19 ± 0.12 | Cysteine conjugates found in mouse urine [2]: conjugate 36 and its reduced form 36a, three additional conjugates 37, 37a, and 37b
